The values that follow come from patent US8580709B2, “Plant growth regulation” (Syngenta Crop Protection, LLC, priority 2009, dated 2013).

Common to all, as to assay type: in vivo
Test [1] concerns Winter-barley Hasso. Description: Plant growth regulation on cereals, greenhouse spray, visual shoot growth reduction. The note with it: 13 days after application, growth stage 30-32, vs untreated control. The protocol: (§1) Plants were grown under greenhouse conditions and sprayed at growth stage 30-32 (start of stem elongation) of cereal plants with a boom sprayer. Trinexapac-ethyl (treatment A) was applied as Moddus® ME250 formulation, and Prohexadione-Ca (treatment B) was applied as Viviful® WG10 formulation with a standard flat fan nozzle at 200 l/ha spray volume. 13 days after application the plant growth reduction (% GR) of the shoot (leaves and stem) was evaluated visually compared to the untreated control. The expected plant growth reduction was calculated according to Colby (Colby 1967, Weeds 15, 20-22) and compared to evaluation data of sprayed plants.

For test [2], the system named is Winter-wheat Arina. The description is as above. Particulars: 13 days after application, growth stage 30-32, vs untreated control. As for the experimental part:
as §1

For test [3], the system named is Spring-wheat Lona. The test is described as above. The note with it: 13 days after application, growth stage 30-32, vs untreated control. As for the experimental part:
as §1

Test [4] deals with Spring-barley Pasadena. Described as above. Particulars: 13 days after application, growth stage 30-32, vs untreated control. The protocol:
as §1

In test [5] the test system is Corn Maeva. Description: Plant growth regulation on corn, greenhouse spray, visual shoot growth reduction. The note with it: 33 days after application, growth stage 13, vs untreated control. As for the experimental part: as §1, with “Corn plants of 4 different varieties” for “Plants”, “13 (3 leaves unfolded)” for “30-32 (start of stem elongation) of cereal plants”, “Trinexapac-ethyl” for “Trinexapac-ethyl (treatment A)”, “Prohexadion-Ca” for “Prohexadione-Ca (treatment B)”, “WG 10” for “WG10”, “33” for “13”

For test [6], the system named is Corn LG22.65. The description is as above. The note with it: 33 days after application, growth stage 13, vs untreated control. As for the experimental part:
as §1, with “Corn plants of 4 different varieties” for “Plants”, “13 (3 leaves unfolded)” for “30-32 (start of stem elongation) of cereal plants”, “Trinexapac-ethyl” for “Trinexapac-ethyl (treatment A)”, “Prohexadion-Ca” for “Prohexadione-Ca (treatment B)”, “WG 10” for “WG10”, “33” for “13”

In test [7] the test system is Corn Ronaldinio. The description is as above. Particulars: 33 days after application, growth stage 13, vs untreated control. The protocol: as §1, with “Corn plants of 4 different varieties” for “Plants”, “13 (3 leaves unfolded)” for “30-32 (start of stem elongation) of cereal plants”, “Trinexapac-ethyl” for “Trinexapac-ethyl (treatment A)”, “Prohexadion-Ca” for “Prohexadione-Ca (treatment B)”, “WG 10” for “WG10”, “33” for “13”

Test [8] concerns Corn ECO5133. The test is described as above. Particulars: 33 days after application, growth stage 13, vs untreated control. The protocol: as §1, with “Corn plants of 4 different varieties” for “Plants”, “13 (3 leaves unfolded)” for “30-32 (start of stem elongation) of cereal plants”, “Trinexapac-ethyl” for “Trinexapac-ethyl (treatment A)”, “Prohexadion-Ca” for “Prohexadione-Ca (treatment B)”, “WG 10” for “WG10”, “33” for “13”

On to `CCOC(=O)C1CC(=O)C(=C(O)C2CC2)C(=O)C1` (stereo not shown) [A, Trinexapac-ethyl], for which the “% GR (plant growth reduction of the shoot)” value in test [1] (25 g a.i./ha) is 0.0%; in test [1] (50 g a.i./ha), 5.0%; in test [2] (25 g a.i./ha), 0.0%; in test [2] (50 g a.i./ha), 5.0%; in test [3] (25 g a.i./ha) it was 1.7%; in test [3] (50 g a.i./ha), 3.3%. For the same compound, the “% GR (plant growth reduction of the shoot)” value in test [4] (25 g a.i./ha) was 0.0%; in test [4] (50 g a.i./ha) it was 0.0%; in test [5] (25 g a.i./ha) it was 1.7%; in test [5] (50 g a.i./ha), 3.3%; in test [5] (100 g a.i./ha), 6.7%; in test [6] (25 g a.i./ha) it was 0.0%. The “% GR (plant growth reduction of the shoot)” value in test [6] (50 g a.i./ha) is 3.3%; in test [6] (100 g a.i./ha), 11.7%; in test [7] (25 g a.i./ha), 0.0%; in test [7] (50 g a.i./ha), 0.0%; in test [7] (100 g a.i./ha), 3.3%; in test [8] (25 g a.i./ha), 1.7%. For the same compound, the figures for the “% GR (plant growth reduction of the shoot)” value in test [8] (50 g a.i./ha) and in test [8] (100 g a.i./ha) were 1.7% and 6.7%, respectively.

On to `CCC(=O)C1=C([O-])CC(C(=O)[O-])CC1=O.[Ca+2]` (stereo not shown) [B, Prohexadione-Ca], for which the “% GR (plant growth reduction of the shoot)” value in test [1] (25 g a.i./ha) was 0.0%; in test [1] (50 g a.i./ha), 5.0%; in test [2] (25 g a.i./ha), 0.0%; in test [2] (50 g a.i./ha) it was 3.3%; in test [3] (25 g a.i./ha), 0.0%; in test [3] (50 g a.i./ha), 3.3%. In addition, the “% GR (plant growth reduction of the shoot)” value was 0.0% in test [4] (25 g a.i./ha); 1.7% in test [4] (50 g a.i./ha); 1.7% in test [5] (25 g a.i./ha); 5.0% in test [5] (50 g a.i./ha); 18.3% in test [5] (100 g a.i./ha); 0.0% in test [6] (25 g a.i./ha). For the same compound, the “% GR (plant growth reduction of the shoot)” value is 1.7% in test [6] (50 g a.i./ha); 13.3% in test [6] (100 g a.i./ha); 0.0% in test [7] (25 g a.i./ha); 0.0% in test [7] (50 g a.i./ha); 1.7% in test [7] (100 g a.i./ha); 0.0% in test [8] (25 g a.i./ha). The “% GR (plant growth reduction of the shoot)” value in test [8] (50 g a.i./ha) and in test [8] (100 g a.i./ha) was 0.0% throughout.
